# Results: patent US20230295162A1 (EÖTVÖS LORÁND TUDOMÁNYEGYETEM, priority 2020, published 2023)
# Where two headings read alike, the source gives them in different places.
# Experiments:
# [1] = test system: SCC-25 (tongue, squamous cell carcinoma) cells; assay: Cell viability assay, CellTiter-Glo (Example 21); type: cell-based, human; details: 72 h treatment
# How it was run: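 SCC-25 tongue squamous cell carcinoma cells were seeded at 1000 cells/well in flat-bottomed white 96 well plates, treated with compound, and viability was then determined with the CellTiter-Glo luminescent assay (Promega) following the manufacturer's instructions. Luminescence was read on a BioTek Synergy 2 Multi-Mode Reader.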
# [2] = test system: Detroit 562 (pharynx, carcinoma) cells; assay: Cell viability assay, CellTiter-Glo (Example 21); type: cell-based, human; details: 72 h treatment
# How it was run: (§1)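 Seeding density per line: Panc-1 750, FaDu 1000, Detroit 562 and MDA-MB-453 1500 cells/well. Viability after treatment read by CellTiter-Glo luminescence; dose-response curves fitted by four-parameter variable-slope non-linear regression.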
# [3] = test system: MDA-MB-231 (breast, adenocarcinoma) cells; assay: Cell viability assay, CellTiter-Glo (Example 21); type: cell-based, human; details: 72 h treatment
# How it was run: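 MDA-MB-231 breast adenocarcinoma cells were seeded at 1500 cells/well in flat-bottomed white 96 well plates (BRANDplates®, cat. no.: 781965). Following compound exposure, viability was assessed with the CellTiter-Glo® luminescent assay (Promega) following the manufacturer's protocol, and luminescence was read on a BioTek Synergy 2 Multi-Mode Reader.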
# [4] = test system: MIA PaCa-2 (pancreas, carcinoma) cells; assay: Cell viability assay, CellTiter-Glo (Example 21); type: cell-based, human; details: 72 h treatment
# How it was run: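 MIA PaCa-2 pancreatic carcinoma cells were seeded at 1000 cells/well in flat-bottomed white 96 well plates (BRANDplates®, cat. no.: 781965) and treated with compound. Viability was then determined with the CellTiter-Glo® luminescent cell viability assay (Promega) following the manufacturer's instructions, with luminescence read on a BioTek Synergy 2 Multi-Mode Reader.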
# [5] = test system: EBC-1 (lung, squamous cell carcinoma) cells; assay: Cell viability assay, CellTiter-Glo (Example 21); type: cell-based, human; details: 72 h treatment
# How it was run: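 EBC-1 lung squamous cell carcinoma cells were seeded at 1000 cells/well in flat-bottomed white 96 well plates. After compound treatment, viability was measured with the CellTiter-Glo luminescent assay following the manufacturer's instructions, and luminescence was read on a BioTek Synergy 2 Multi-Mode microplate reader.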
# [6] = test system: PC-3 (prostate, adenocarcinoma) cells; assay: Cell viability assay, CellTiter-Glo (Example 21); type: cell-based, human; details: 72 h treatment
# How it was run: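 PC-3 prostate adenocarcinoma cells were seeded at 1000 cells/well in flat-bottomed white 96 well plates and treated with compounds. Viability was then determined with the CellTiter-Glo® luminescent assay (Promega) following the manufacturer's instructions, with luminescence read on a BioTek Synergy 2 Multi-Mode Reader.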
# [7] = test system: MDA-MB-453 (breast, carcinoma) cells; assay: Cell viability assay, CellTiter-Glo (Example 21); type: cell-based, human; details: 72 h treatment
# How it was run: as §1
# [8] = test system: LNCaP (prostate, carcinoma) cells; assay: Cell viability assay, CellTiter-Glo (Example 21); type: cell-based, human; details: 72 h
# How it was run: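 LNCaP prostate carcinoma cell viability was assessed with the CellTiter-Glo® luminescent assay (Promega), following the manufacturer's instructions. Cells were seeded at 1500 cells/well into flat-bottomed white 96 well plates, treated, and then luminescence was read on a BioTek Synergy 2 Multi-Mode Reader. Dose-response curves were fitted in GraphPad Prism 8.4.2 by four-parameter variable-slope non-linear regression.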
# [9] = test system: FaDu (pharynx, squamous cell carcinoma) cells; assay: Cell viability assay, CellTiter-Glo (Example 21); type: cell-based, human; details: 72 h treatment
# How it was run: as §1
# [10] = test system: DU 145 (prostate, carcinoma) cells; assay: Cell viability assay, CellTiter-Glo (Example 21); type: cell-based, human; details: 72 h
# How it was run: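 DU 145 cancer cell viability was assessed with the CellTiter-Glo® luminescent assay (Promega, Madison, WI, USA), following the manufacturer's instructions. Cells were seeded at 1000 cells/well in flat-bottomed white 96 well plates, and after treatment luminescence was read on a BioTek Synergy 2 Multi-Mode Reader.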
# [11] = test system: Capan-1 (pancreas, adenocarcinoma) cells; assay: Cell viability assay, CellTiter-Glo (Example 21); type: cell-based, human; details: 72 h treatment
# How it was run: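 Capan-1 cells were seeded at 1000 cells/well in flat-bottomed white 96 well plates (BRANDplates®), with density optimized for cell size and growth rate. Following compound treatment, viability was measured with the CellTiter-Glo® luminescent assay (Promega) per the manufacturer's instructions, reading luminescence on a BioTek Synergy 2 Multi-Mode Reader.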
# [12] = test system: Panc-1 (pancreas, carcinoma) cells; assay: Cell viability assay, CellTiter-Glo (Example 21); type: cell-based, human; details: 72 h treatment
# How it was run: as §1
# [13] = test system: PANC-1 (human pancreatic carcinoma) cells; assay: Impedance-based viability assay (xCELLigence SP), long treatment; type: cell-based; details: 72 h, read-out: cytotoxicity expressed in IC50, PANC-1
# Text: (Gibco®/Invitrogen Corporation, New York, NY, USA).
# Data obtained from each experiment represent mathematical averages.
# Panc-1 human cell line = assay: Cytotoxicity on Panc-1, xCELLigence SP, IC50 after 24 h, 48 h, 72 h and 96 h (Example 22)
# [14] = test system: EBC-1 lung cancer cell line; assay: High-throughput screening, CellTiter-Glo cell viability assay at 100 nM; type: cell-based, human; details: Homo sapiens, EBC-1, HTS, compounds at 100 nM, 72 h, read-out: cytotoxicity expressed in IC50, EBC-1 (results of High throughput screening)
# [15] = test system: H2228 lung cancer cell line; assay: as above; type: cell-based, human; details: Homo sapiens, NCI-H2228, HTS, compounds at 100 nM, 72 h, read-out: cytotoxicity expressed in IC50, H2228 (results of High throughput screening)
structure (smiles),measurement,setting,value
"[N-]=[N+]=Nc1ccc(CN2C(=O)C3=C(CCN(Cc4cc(F)cc(F)c4)C3)N3CCN=C23)cc1 [I/107, 4-(4-Azidobenzyl)-7-(3,5-difluorobenzyl)-2,4,6,7,8,9-hexahydroimidazo[1,2-a]pyrido[3,4-e]pyrimidin-5(1H)-one]","SCC-25 (tongue, squamous cell carcinoma) cell viability (% of control)",[1]; 3.7 nM,97.3 ± 3.8 % of control
same,"SCC-25 (tongue, squamous cell carcinoma) cell viability (% of control)",[1]; 11.1 nM,75.6 ± 6.8 % of control
same,"SCC-25 (tongue, squamous cell carcinoma) cell viability (% of control)",[1]; 100 nM,35.4 ± 5.7 % of control
same,"SCC-25 (tongue, squamous cell carcinoma) cell viability (% of control)",[1]; 300 nM,42.4 ± 5.7 % of control
same,"Detroit 562 (pharynx, carcinoma) cell viability (% of control)",[2]; 3.7 nM,86.6 ± 5.7 % of control
same,"Detroit 562 (pharynx, carcinoma) cell viability (% of control)",[2]; 11.1 nM,36.8 ± 5.1 % of control
same,"Detroit 562 (pharynx, carcinoma) cell viability (% of control)",[2]; 100 nM,31.4 ± 2.9 % of control
same,"Detroit 562 (pharynx, carcinoma) cell viability (% of control)",[2]; 300 nM,34.1 ± 6.5 % of control
same,"MDA-MB-231 (breast, adenocarcinoma) cell viability (% of control)",[3]; 3.7 nM,102.1 ± 3.5 % of control
same,"MDA-MB-231 (breast, adenocarcinoma) cell viability (% of control)",[3]; 11.1 nM,98.6 ± 0.8 % of control
same,"MDA-MB-231 (breast, adenocarcinoma) cell viability (% of control)",[3]; 100 nM,57.3 ± 1.8 % of control
same,"MDA-MB-231 (breast, adenocarcinoma) cell viability (% of control)",[3]; 300 nM,55.7 ± 0.9 % of control
same,"MIA PaCa-2 (pancreas, carcinoma) cell viability (% of control)",[4]; 3.7 nM,102.5 ± 5.4 % of control
same,"MIA PaCa-2 (pancreas, carcinoma) cell viability (% of control)",[4]; 11.1 nM,91.5 ± 6.6 % of control
same,"MIA PaCa-2 (pancreas, carcinoma) cell viability (% of control)",[4]; 100 nM,18.8 ± 6.2 % of control
same,"MIA PaCa-2 (pancreas, carcinoma) cell viability (% of control)",[4]; 300 nM,17.4 ± 7.1 % of control
same,"EBC-1 (lung, squamous cell carcinoma) cell viability (% of control)",[5]; 3.7 nM,99.9 ± 2.5 % of control
same,"EBC-1 (lung, squamous cell carcinoma) cell viability (% of control)",[5]; 11.1 nM,70.3 ± 0.9 % of control
same,"EBC-1 (lung, squamous cell carcinoma) cell viability (% of control)",[5]; 100 nM,23.5 ± 1.0 % of control
same,"EBC-1 (lung, squamous cell carcinoma) cell viability (% of control)",[5]; 300 nM,23.5 ± 2.5 % of control
same,"PC-3 (prostate, adenocarcinoma) cell viability (% of control)",[6]; 3.7 nM,107.1 ± 5.9 % of control
same,"PC-3 (prostate, adenocarcinoma) cell viability (% of control)",[6]; 11.1 nM,82.3 ± 7.0 % of control
same,"PC-3 (prostate, adenocarcinoma) cell viability (% of control)",[6]; 100 nM,32.7 ± 2.6 % of control
same,"PC-3 (prostate, adenocarcinoma) cell viability (% of control)",[6]; 300 nM,32.8 ± 4.1 % of control
same,"MDA-MB-453 (breast, carcinoma) cell viability (% of control)",[7]; 3.7 nM,107.2 ± 9.1 % of control
same,"MDA-MB-453 (breast, carcinoma) cell viability (% of control)",[7]; 11.1 nM,47.8 ± 6.2 % of control
same,"MDA-MB-453 (breast, carcinoma) cell viability (% of control)",[7]; 100 nM,32.3 ± 1.3 % of control
same,"MDA-MB-453 (breast, carcinoma) cell viability (% of control)",[7]; 300 nM,32.2 ± 1.3 % of control
same,LNCaP cell viability,[8]; 3.7 nM,95.3 ± 2.3 % of control
same,LNCaP cell viability,[8]; 11.1 nM,37.9 ± 3.3 % of control
same,LNCaP cell viability,[8]; 100 nM,13.5 ± 0.7 % of control
same,LNCaP cell viability,[8]; 300 nM,13.6 ± 0.6 % of control
same,"FaDu (pharynx, squamous cell carcinoma) cell viability (% of control)",[9]; 3.7 nM,98.6 ± 1.9 % of control
same,"FaDu (pharynx, squamous cell carcinoma) cell viability (% of control)",[9]; 11.1 nM,74.3 ± 4.2 % of control
same,"FaDu (pharynx, squamous cell carcinoma) cell viability (% of control)",[9]; 100 nM,24.6 ± 3.6 % of control
same,"FaDu (pharynx, squamous cell carcinoma) cell viability (% of control)",[9]; 300 nM,25.5 ± 4.3 % of control
same,DU 145 cell viability,[10]; 3.7 nM,101.2 ± 6.5 % of control
same,DU 145 cell viability,[10]; 11.1 nM,48.7 ± 1.7 % of control
same,DU 145 cell viability,[10]; 100 nM,8.3 ± 2.9 % of control
same,DU 145 cell viability,[10]; 300 nM,9.0 ± 2.9 % of control
same,"Capan-1 (pancreas, adenocarcinoma) cell viability (% of control)",[11]; 3.7 nM,103.5 ± 3.0 % of control
same,"Capan-1 (pancreas, adenocarcinoma) cell viability (% of control)",[11]; 11.1 nM,101.2 ± 5.2 % of control
same,"Capan-1 (pancreas, adenocarcinoma) cell viability (% of control)",[11]; 100 nM,37.6 ± 2.3 % of control
same,"Capan-1 (pancreas, adenocarcinoma) cell viability (% of control)",[11]; 300 nM,34.7 ± 2.9 % of control
same,"Panc-1 (pancreas, carcinoma) cell viability (% of control)",[12]; 3.7 nM,107.9 ± 11.5 % of control
same,"Panc-1 (pancreas, carcinoma) cell viability (% of control)",[12]; 11.1 nM,93.6 ± 8.1 % of control
same,"Panc-1 (pancreas, carcinoma) cell viability (% of control)",[12]; 100 nM,54.2 ± 0.6 % of control
same,"Panc-1 (pancreas, carcinoma) cell viability (% of control)",[12]; 300 nM,55.0 ± 3.2 % of control
same,IC50,[13],11 nM
same,IC50,"Panc-1 human cell line; PANC-1, 72 h, read-out: IC50 (72 h) [nM]",102 ± 24.4 nM
same,IC50,"Panc-1 human cell line; PANC-1, 96 h, read-out: IC50 (96 h) [nM]",49.6 ± 17 nM
same,IC50,[14],< 100 nM
same,IC50,[15],< 100 nM
